The target in test [1] is T1, μ-opioid receptor (Homo sapiens, UniProt P35372). The conditions noted are these: read-out: Ki at μ-receptors; earlier work; cited from earlier work.
Test [2] has as its target T2, μ-receptors (Homo sapiens, UniProt P35372). The conditions noted are these: [35S]GTPγS assay; cited from earlier work.
A further test deals with δ-opioid receptor (Homo sapiens, UniProt P41143). The test is described as follows: [125I]Ioxy binding, CHO cells expressing δ-opioid receptor.
The conditions of test [3]: cited from earlier work.
The target in test [4] is T1, μ-opioid receptor. The test is described as follows: [125I]Ioxy binding, CHO cells expressing μ-opioid receptor. The conditions noted are these: for affinity for μ-receptors (in words): compared with the N-methyl analogues 46 and 47.
For test [5], the target named is T2, μ-receptors. The test is described as follows: biochemical. It is filed as biochemical.
Another test deals with κ receptors (Homo sapiens, UniProt P41145). The test is described as follows: [35S]GTP-γ-S functional assay, κ-antagonism. The test is classed as biochemical. As to conditions: for κ-antagonist activity in the functional assay (in words): [35S]GTPγS assay. For orientation: Binding of GTPγS marks nucleotide exchange on a G protein.
Sequence of κ receptors (P41145 whole entry): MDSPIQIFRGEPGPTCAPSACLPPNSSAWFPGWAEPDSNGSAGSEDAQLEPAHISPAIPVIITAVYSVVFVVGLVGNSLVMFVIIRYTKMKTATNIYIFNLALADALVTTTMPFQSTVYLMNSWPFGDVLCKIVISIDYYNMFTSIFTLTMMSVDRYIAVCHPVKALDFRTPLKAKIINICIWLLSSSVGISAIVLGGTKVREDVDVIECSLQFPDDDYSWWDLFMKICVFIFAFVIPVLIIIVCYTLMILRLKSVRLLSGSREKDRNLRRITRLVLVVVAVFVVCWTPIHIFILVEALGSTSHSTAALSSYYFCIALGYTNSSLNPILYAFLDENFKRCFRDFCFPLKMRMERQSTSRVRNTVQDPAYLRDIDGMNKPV
Another test has as its target δ receptors (Homo sapiens, UniProt P41143). The test is described as follows: [35S]GTP-γ-S functional assay, δ-antagonism. The test is classed as biochemical.

SMILES strings stand for the structures. Entries after “also recorded” stand apart in the source; their conditions may differ. Where two headings read alike, the source gives them in different places.

T1 sequence (P35372 whole entry, species assumed): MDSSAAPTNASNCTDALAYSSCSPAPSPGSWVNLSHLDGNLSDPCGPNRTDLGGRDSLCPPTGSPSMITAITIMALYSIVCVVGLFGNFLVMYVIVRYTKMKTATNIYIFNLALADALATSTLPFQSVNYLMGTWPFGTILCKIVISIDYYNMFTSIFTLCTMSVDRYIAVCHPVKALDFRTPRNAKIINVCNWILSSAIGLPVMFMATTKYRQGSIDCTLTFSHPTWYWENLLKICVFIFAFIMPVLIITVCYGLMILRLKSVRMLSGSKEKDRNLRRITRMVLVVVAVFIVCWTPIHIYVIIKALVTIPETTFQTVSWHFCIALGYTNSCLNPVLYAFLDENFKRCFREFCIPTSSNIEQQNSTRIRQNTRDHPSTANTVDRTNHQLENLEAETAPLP
T2 sequence (P35372 whole entry, species assumed): as above
Sequence of δ receptors (P41143 whole entry): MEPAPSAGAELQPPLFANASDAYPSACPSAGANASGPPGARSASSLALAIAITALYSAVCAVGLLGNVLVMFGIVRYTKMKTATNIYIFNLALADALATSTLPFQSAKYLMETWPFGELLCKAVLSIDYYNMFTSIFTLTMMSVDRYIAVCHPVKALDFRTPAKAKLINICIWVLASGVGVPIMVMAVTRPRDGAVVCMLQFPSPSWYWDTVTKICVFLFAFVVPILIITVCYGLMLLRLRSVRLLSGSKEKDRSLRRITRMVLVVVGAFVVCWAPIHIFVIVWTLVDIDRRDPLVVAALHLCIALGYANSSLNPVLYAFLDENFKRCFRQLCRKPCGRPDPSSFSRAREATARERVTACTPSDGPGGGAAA
Sequence of δ-opioid receptor (P41143 whole entry): as above

In general, Ki refers to the dissociation constant of the complex between target and ligand, obtained from inhibition or displacement. Turning to `Oc1cccc2c1O[C@H]1[C@H]3CCC[C@@]21CCN3CCc1ccccc1` (single isomer, unassigned) [(−)-N-phenethyl ortho-f isomer], the Ki at μ-opioid receptor [1] was 7 nM. The “potency as μ-opioid antagonist (in words)” value on μ-receptors [2] is “more potent than naloxone”.

`CN1CC[C@@]23C[C@@H]1CC[C@H]2Oc1c(O)cccc13` (racemic) [Compound 20, (4R*,6aS*,11bR*)-2,3,4,5,6,6a-Hexahydro-3-methyl-1H-4,11b-methanobenzofuro[3,2-d]azocine-8-ol]: the Ki on δ-opioid receptor was over 10000 nM.

For the compound `Oc1cccc2c1O[C@H]1[C@@H]3CCC[C@]21CCN3CCc1ccccc1` (single isomer, unassigned) [(−)-N-phenethyl para-e isomer], the “antinociceptive activity (in words)” value in test [3] is given as “morphine-like antinociceptive”.

For the compound `Oc1ccc2c(c1)[C@]13CCC[C@H](C1)N(CCc1ccccc1)C[C@@H]3O2` (relative stereo) [Compound 52], the “affinity for μ-receptors (in words)” value at μ-opioid receptor [4] is on record as “only slight affinity”.

With `CN1C[C@@H]2Oc3ccc(O)cc3[C@@]23CCC[C@@H]1C3` (racemic) [Compound 47, (3R*,6aS*,11aR*)-1,3,4,5,6,11a-Hexahydro-2-methyl-2H-3,6a-methanobenzofuro [2,3-c]azocin-8-ol], the affinity on μ-opioid receptor [4] corresponds to a Ki of 2930 ± 203 nM.

Take `Oc1cccc2c1O[C@H]1CN(CCc3ccccc3)[C@@H]3CCC[C@]21C3` (racemic) [Compound 51, (3R*,6aS*,11aR*)-1,3,4,5,6,11a-Hexahydro-2-phenethyl-2H-3,6a-methanobenzofuro [2,3-c]azocin-10-ol]: the “affinity for μ-receptors (in words)” value on μ-opioid receptor [4] is “only slight affinity”.

Turning to `Oc1cccc2c1O[C@@H]1CC[C@H]3C[C@@]21CCN3CCc1ccccc1` (racemic) [Compound 24, (4R*,6aS*,11bR*)-2,3,4,5,6,6a-Hexahydro-3-phenethyl-1H-4,11b-methanobenzofuro[3,2-d]azocine-8-ol], at μ-receptors [5], the Kb was found to be 77 ± 13 nM and the “μ-antagonist activity in the functional assay (in words)” value is given as “weak μ-antagonist activity”. At κ receptors, the Kb turned out to be 21 ± 3.4 nM and the “κ-antagonist activity in the functional assay (in words)” value is recorded as “moderately active κ-antagonists; also recorded: moderately potent κ-receptor antagonists”. For the same compound, the Kb at δ receptors was 8000 ± 1500 nM.

As to `Oc1ccc2c(c1)[C@@]13CCN(CCc4ccccc4)[C@@H](CC[C@H]1O2)C3` (racemic) [Compound 16, (4R*,6aS*,11bR*)-2,3,4,5,6,6a-Hexahydro-3-phenethyl-1H-4,11b-methanobenzofuro[3,2-d]azocine-10-ol], the Kb at μ-receptors [5] stood at 260 ± 79 nM; at κ receptors it was 19 ± 5.2 nM; at δ receptors, 17000 ± 4200 nM. In addition, on κ receptors, the “κ-antagonist activity in the functional assay (in words)” value is reported as “moderately active κ-antagonists; also recorded: moderately potent κ-receptor antagonists”.

Consider `CN1C[C@@H]2Oc3c(O)cccc3[C@@]23CCC[C@@H]1C3` (racemic) [Compound 46, (3R*,6aS*,11aR*)-1,3,4,5,6,11a-Hexahydro-2-methyl-2H-3,6a-methanobenzofuro[2,3-c]azocin-10-ol], for which the Ki on μ-opioid receptor [4] turned out to be 8000 ± 406 nM.

The values above are taken from article PMC2605521 (Journal of medicinal chemistry, 2008).
